Assay results: patent US6245780A, “Tetrahydroisoquinolinyl-indole derivatives for the treatment of depression” (American Home Products Corp, priority 2000, dated 2001)
Like-named read-outs stand apart in the source and are kept apart here.

How the values were obtained:
human 5-HT1A receptor = molecular target: T1, human 5-HT1A receptor (Homo sapiens, UniProt P08908); assay: human 5-HT1A receptor binding, [3H]8-OH-DPAT radioligand, membranes of 5-HT1A.CHO cells; conditions: for inhibition at 1 µM: 1 uM compound, value in parentheses, read-out: 5-HT1A % inh @ 1 uM
T1 construct: expressed in transfected cells; host or cells: Chinese hamster ovary cells (5-HT1A.CHO)
T1 sequence (P08908 1-422): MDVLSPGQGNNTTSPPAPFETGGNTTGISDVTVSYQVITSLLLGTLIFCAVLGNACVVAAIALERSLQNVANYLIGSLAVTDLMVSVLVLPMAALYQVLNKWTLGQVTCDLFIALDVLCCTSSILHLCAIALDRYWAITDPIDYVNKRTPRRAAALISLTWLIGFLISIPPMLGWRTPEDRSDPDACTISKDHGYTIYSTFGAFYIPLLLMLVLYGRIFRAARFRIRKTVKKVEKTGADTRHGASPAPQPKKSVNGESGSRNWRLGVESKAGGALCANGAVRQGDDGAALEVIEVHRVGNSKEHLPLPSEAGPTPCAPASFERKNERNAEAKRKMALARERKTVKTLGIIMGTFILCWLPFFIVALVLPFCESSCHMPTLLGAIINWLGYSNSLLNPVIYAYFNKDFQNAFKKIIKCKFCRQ
Procedure: (§1) The PCR cloning of the human 5-HT1A receptor subtype from a human genomic library has been described previously by Chanda et al., Mol. Pharmacol., 43:516 (1993). A stable Chinese hamster ovary cell line expressing the human 5-HT1A receptor subtype (5-HT1A.CHO cells) was employed throughout this study. Cells were maintained in DMEM supplemented with 10% fetal calf serum, non-essential amino acids and penicillin/streptomycin.
Cells were grown to 95-100% confluency as a monolayer before membranes were harvested for binding studies. Cells were gently scraped from the culture plates, transferred to centrifuge tubes, and washed twice by centrifugation (2000 rpm for 10 min., 4° C.) in buffer (50 mM Tris; pH 7.5). The resulting pellets were aliquoted and maintained at -80° C. On the day of assay, the cells were thawed on ice, and resuspended in buffer. Studies were conducted using [^3 H]8-OH-DPAT as the radioligand. The binding assay was performed in 96 well microtiter plates in a final total volume of 250 μL of buffer. Comparison experiments were performed by using 7 concentrations of unlabelled drug and a final ligand concentration of 1.5 nM. Non-specific binding was determined in the presence of 10 μM 5HT. Saturation analysis was conducted by using [^3 H]8-OH-DPAT at concentrations ranging from 0.3-30 nM. Following a 30 minute incubation at room temperature, the reaction was terminated by the addition of ice cold buffer and rapid filtration using a M-96 Brandel Cell Harvester (Gaithersburg, Md.) through a GF/B filter presoaked for 30 minutes in 0.5% polyethyleneimine.

5-HT1A cloned receptor = molecular target: T2, 5-HT1A cloned receptor (Homo sapiens, UniProt P08908); assay: [35S]-GTPγS binding assay, 5-HT1A cloned receptor membrane fragments; type: biochemical; conditions: maximum agonist response defined by excess 8-OH-DPAT; value in parentheses; read-out: GTPgS % EMax
T2 construct: expressed in transfected cells; host or cells: Chinese hamster ovary cells (5-HT1A.CHO)
T2 sequence (P08908 1-422): T1 sequence (P08908 1-422)
From the text: as §1
The [^35 S]-GTPγS binding assay was similar to that used by Lazareno and Birdsall, Br. J. Pharmacol. 109:1120 (1993). Briefly, 5-HT1A cloned receptor membrane fragments (as used for 5-HT1A receptor binding assays) were stored at -70° C. When needed, membranes were rapidly thawed, centrifuged at 40,000×g for 10 minutes and resuspended at 4° C. for 10 minutes in assay buffer (25 mM HEPES, 3 mM MgCl2, 100 mM NaCl, 1 mM EDTA, 10 uM GDP, […], pH 8.0). These membranes were then incubated for 30 min at 30° C. with [^35 S]GTPgS (1 nM) in the presence of vehicle, test compound (one to eight concentrations), or excess 8-OH-DPAT to define maximum agronist response. All reactions were terminated by the addition of ice cold Tris buffer followed by rapid filtration using a Tom Tech® filtration device to separate bound from free [^35 S]GTPgS. Agonists produced an increase in the amount of [^35 S]GTPgS bound whereas antagonists produced no increase in binding. Bound radioactivity was counted and analyzed as above.

serotonin transporter = molecular target: T3, serotonin transporter (Rattus norvegicus, UniProt P31652); assay: affinity for the serotonin transporter (ST), 3H-paroxetine, rat frontal cortical membranes; type: binding, rat (male Sprague-Dawley); conditions: 3H-paroxetine 0.1 nM, 60 min, 25° C.
T3 construct: frontal cortical membranes prepared from male Sprague-Dawley rats; from tissue; host or cells: rat (male Sprague-Dawley) frontal cortex membranes
Procedure: A protocol similar to that used by Cheetham et al., Neuropharmacol., 32:737 (1993) was used to determine the affinity of compounds for the serotonin transporter. Briefly, frontal cortical membranes prepared from male Sprague-Dawley rats were incubated with ^3 H-parsoxetinc (0.1 nM) for 60 min at 25° C. All tubes also contained either vehicle, test compound (one to eight concentrations), or a saturating concentration of fluoxetine (10 μM) to define […]. All reactions were terminated by the addition of ice cold Tris buffer followed by rapid filtration using a Tom Tech filtration device to separate bound from free ^3 H-paroxetine. Bound radioactivity was quantitated using a Wallac 1205 Beta Plate® counter. Nonlinear regression analysis was used to determine IC50 values which were converted to Ki values using the method set forth in Cheng and Prusoff, Biochem. Pharmacol., 22:3099 (1973) ([…].

[1] = [3H]8-OH-DPAT, 1.5 nM, 5-HT1A.CHO membranes, read-out: 5-HT1A Ki

T3 sequence (P31652 whole entry): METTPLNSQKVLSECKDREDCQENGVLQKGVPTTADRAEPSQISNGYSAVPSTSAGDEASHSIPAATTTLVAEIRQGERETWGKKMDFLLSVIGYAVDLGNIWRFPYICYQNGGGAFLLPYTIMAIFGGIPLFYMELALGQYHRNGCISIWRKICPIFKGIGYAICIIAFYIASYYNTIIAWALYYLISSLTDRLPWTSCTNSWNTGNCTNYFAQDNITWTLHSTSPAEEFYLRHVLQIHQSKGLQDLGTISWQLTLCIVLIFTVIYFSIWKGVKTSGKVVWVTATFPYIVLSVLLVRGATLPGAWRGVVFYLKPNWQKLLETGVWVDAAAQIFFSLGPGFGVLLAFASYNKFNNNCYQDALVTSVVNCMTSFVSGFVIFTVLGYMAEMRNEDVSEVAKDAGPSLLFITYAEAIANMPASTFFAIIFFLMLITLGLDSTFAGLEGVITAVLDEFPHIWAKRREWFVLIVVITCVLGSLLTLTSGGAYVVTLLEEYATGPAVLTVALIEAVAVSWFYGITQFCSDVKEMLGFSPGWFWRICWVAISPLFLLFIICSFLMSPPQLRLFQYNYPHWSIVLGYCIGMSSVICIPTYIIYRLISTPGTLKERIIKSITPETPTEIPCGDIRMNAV

SMILES	inhibition at 1 µM (human 5-HT1A receptor; [3H]8-OH-DPAT)	Ki (human 5-HT1A receptor)	Emax (5-HT1A cloned receptor)	Ki (serotonin transporter)	Ki (human 5-HT1A receptor; [1])
COc1ccc2c(c1)CN([C@H]1CC[C@@H](c3c[nH]c4ccc(C#N)cc43)CC1)CC2 [Example 1a, 3-[(1,4-cis)-4-(7-Methoxy-3,4-dihydro-1H-isoquinolin-2-yl)-cyclohexyl]-1H-indole-5-carbonitrile]	26%	–	–	–	–
COc1ccc2c(c1)CN([C@H]1CC[C@H](c3c[nH]c4ccc(C#N)cc43)CC1)CC2 [Example 1b, 3-[(1,4-trans)-4-(7-Methoxy-3,4-dihydro-1H-isoquinolin-2-yl)-cyclohexyl]-1H-indole-5-carbonitrile]	48%	–	–	–	–
COc1cccc2c1CN([C@H]1CC[C@@H](c3c[nH]c4ccc(C#N)cc43)CC1)CC2 [Example 2a, 3-[(1,4-cis)-4-(8-Methoxy-3,4-dihydro-1H-isoquinolin-2-yl)-cyclohexyl]-1H-indole-5-carbonitrile]	14%	–	–	–	–
COc1cccc2c1CN([C@H]1CC[C@H](c3c[nH]c4ccc(C#N)cc43)CC1)CC2 [Example 2b, 3-[(1,4-trans)-4-(8-Methoxy-3,4-dihydro-1H-isoquinolin-2-yl)-cyclohexyl]-1H-indole-5-carbonitrile]	46%	–	–	–	–
COc1ccc2c(c1)CCN([C@H]1CC[C@@H](c3c[nH]c4ccc(C#N)cc43)CC1)C2 [Example 3a, 3-[(1,4-cis)-4-(6-Methoxy-3,4-dihydro-1H-isoquinolin-2-yl)-cyclohexyl]-1H-indole-5-carbonitrile]	21%	–	–	–	–
COc1ccc2c(c1)CCN([C@H]1CC[C@H](c3c[nH]c4ccc(C#N)cc43)CC1)C2 [Example 3b, 3-[(1,4-trans)-4-(6-Methoxy-3,4-dihydro-1H-isoquinolin-2-yl)-cyclohexyl]-1H-indole-5-carbonitrile]	–	300 nM	0%	–	–
COc1cccc2c1CCN([C@H]1CC[C@@H](c3c[nH]c4ccc(C#N)cc43)CC1)C2 [Example 4a, 3-[(1,4-cis)-4-(5-Methoxy-3,4-dihydro-1H-isoquinolin-2-yl)-cyclohexyl]-1H-indole-5-carbonitrile]	7%	–	12%	–	–
COc1cccc2c1CCN([C@H]1CC[C@H](c3c[nH]c4ccc(C#N)cc43)CC1)C2 [Example 4b, 3-[(1,4-trans)-4-(5-Methoxy-3,4-dihydro-1H-isoquinolin-2-yl)-cyclohexyl]-1H-indole-5-carbonitrile]	47%	–	33%	–	–
N#Cc1ccc2[nH]cc([C@H]3CC[C@@H](N4CCc5ccccc5C4)CC3)c2c1 [Example 5a, 3-[(1,4-cis)-4-(3,4-Dihydro-1H-isoquinolin-2-yl)-cyclohexyl]-1H-indole-5-carbonitrile]	0%	–	–	1.3 nM	–
N#Cc1ccc2[nH]cc([C@H]3CC[C@H](N4CCc5ccccc5C4)CC3)c2c1 [Example 5b, 3-[(1,4-trans)-4-(3,4-Dihydro-1H-isoquinolin-2-yl)-cyclohexyl]-1H-indole-carbonitrile]	10%	–	–	–	–
COc1cccc2c1CCN(CCCc1c[nH]c3ccc(F)cc13)C2 [Example 6, 2-[3-(5-Fluoro-1H-indol-3-yl)-propyl]-5-methoxy-1,2,3,4-tetrahydroisoquinoline]	–	–	23%	1.9 nM	243 nM
COc1ccc2c(c1)CCN(CCCc1c[nH]c3ccc(F)cc13)C2 [Example 7, 2-[3-(5-Fluoro-1H-indol-3-yl)-propyl]-6-methoxy-1,2,3,4-tetrahydroisoquinoline]	–	–	100%	1.4 nM	288 nM
Fc1ccc2[nH]cc(CCCN3CCc4ccccc4C3)c2c1 [Example 8, 2-[3-(5-Fluoro-1H-indol-3-yl)-propyl]-1,2,3,4-tertrahydroisoquinoline]	48%	–	13%	4.85 nM	–
